Experimental data taken from ChEMBL document CHEMBL1201862, “PubChem BioAssay data set” (2004).
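Interpolation was linear, between the two tested concentrations surrounding the appropriate level; five concentrations were tested over 48 hours in 96-well plates. Here, GI50 denotes the concentration required for 50% inhibition of growth.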 Activity calls are given as the source filed them. Rule as the data show it: active = GI50 up to about 1.1 µM and inactive = higher.

Legend:
Assay in all cases: NCI tumour cell line growth inhibition, 48 h
[1] = tested on: Malme-3M
[2] = tested on: HCT-116
[3] = tested on: HT-29
[4] = tested on: SK-MEL-28
[5] = tested on: HOP-92
[6] = tested on: HCC 2998
[7] = tested on: HOP-62
[8] = tested on: OVCAR-5
[9] = tested on: RPMI-8226
[10] = tested on: MDA-MB-231
[11] = tested on: OVCAR-3
[12] = tested on: IGROV-1
[13] = tested on: M14
[14] = tested on: BT-549
[15] = tested on: SW-620
[16] = tested on: RXF 393
[17] = tested on: SN12C
[18] = tested on: HL-60
[19] = tested on: KM12
[20] = tested on: PC-3
[21] = tested on: K562
[22] = tested on: OVCAR-4
[23] = tested on: U-251
[24] = tested on: UO-31
[25] = tested on: SK-OV-3
[26] = tested on: SNB-19
[27] = tested on: HCT-15
[28] = tested on: UACC-62
[29] = tested on: SR
[30] = tested on: A549
[31] = tested on: NCI/ADR-RES
[32] = tested on: COLO 205
[33] = tested on: UACC-257
[34] = tested on: MOLT-4
[35] = tested on: T47D
[36] = tested on: SK-MEL-5
[37] = tested on: Hs-578T
[38] = tested on: MDA-N
[39] = tested on: NCI-H226
[40] = tested on: SF-268
[41] = tested on: ACHN
[42] = tested on: SF-539
[43] = tested on: NCI-H522
[44] = tested on: MCF7
[45] = tested on: TK-10
[46] = tested on: SF-295
[47] = tested on: NCI-H460
[48] = tested on: A498
[49] = tested on: MDA-MB-435
[50] = tested on: OVCAR-8
[51] = tested on: CAKI-1
[52] = tested on: 786-0
[53] = tested on: SNB-75
[54] = tested on: LOX IMVI
[55] = tested on: CCRF-CEM
[56] = tested on: DU-145
[57] = tested on: NCI-H23
[58] = tested on: SK-MEL-2

## O=C1CSC(c2ccccc2O)N1c1ccc(-n2c(-c3ccccc3)nc3ccccc3c2=O)cc1 (stereo not drawn)
[1]
  GI50: 22.2 µM (inactive)
[2]
  GI50: 11 µM (inactive)
[3]
  GI50: 27.1 µM (inactive)
[4]
  GI50: 28.4 µM (inactive)
[5]
  GI50: 20.8 µM (inactive)
[6]
  GI50: 28.5 µM (inactive)
[7]
  GI50: 20.6 µM (inactive)
[8]
  GI50: 30.8 µM (inactive)
[9]
  GI50: 21.1 µM (inactive)
[10]
  GI50: 4.76 µM (inactive)
[11]
  GI50: 14.6 µM (inactive)
[12]
  GI50: 25.5 µM (inactive)
[13]
  GI50: 33.7 µM (inactive)
[14]
  GI50: 21.6 µM (inactive)
[15]
  GI50: 29.7 µM (inactive)
[16]
  GI50: 42.7 µM (inactive)
[17]
  GI50: 30.3 µM (inactive)
[18]
  GI50: 21.6 µM (inactive)
[19]
  GI50: 20.9 µM (inactive)
[20]
  GI50: 12.9 µM (inactive)
[21]
  GI50: 15.2 µM (inactive)
[22]
  GI50: 30.4 µM (inactive)
[23]
  GI50: 5.7 µM (inactive)
[24]
  GI50: 18.9 µM (inactive)
[25]
  GI50: 23.7 µM (inactive)
[26]
  GI50: 27.3 µM (inactive)
[27]
  GI50: 6.84 µM
[28]
  GI50: 21.5 µM (inactive)
[29]
  GI50: 21.4 µM (inactive)
[30]
  GI50: 38.4 µM (inactive)
[31]
  GI50: 21 µM (inactive)
[32]
  GI50: 30.3 µM (inactive)
[33]
  GI50: 26.7 µM (inactive)
[34]
  GI50: 13.2 µM (inactive)
[35]
  GI50: 14.9 µM (inactive)
[36]
  GI50: 16.1 µM (inactive)
[37]
  GI50: 23.4 µM (inactive)
[38]
  GI50: 28.2 µM (inactive)
[39]
  GI50: 25 µM (inactive)
[40]
  GI50: 50.1 µM (inactive)
[41]
  GI50: 19.7 µM (inactive)
[42]
  GI50: 16.6 µM (inactive)
[43]
  GI50: 19.9 µM (inactive)
[44]
  GI50: 28.1 µM (inactive)
[45]
  GI50: 48.2 µM (inactive)
[46]
  GI50: 16.4 µM (inactive)
[47]
  GI50: 14.8 µM (inactive)
[48]
  GI50: 29.7 µM (inactive)
[49]
  GI50: 24.4 µM (inactive)
[50]
  GI50: 24.3 µM (inactive)
[51]
  GI50: 29.2 µM (inactive)
[52]
  GI50: 20.1 µM (inactive)
[53]
  GI50: 54.1 µM (inactive)
[54]
  GI50: 13.1 µM (inactive)
[55]
  GI50: 14.7 µM (inactive)
[56]
  GI50: 29.2 µM (inactive)
[57]
  GI50: 31.6 µM (inactive)
[58]
  GI50: 24.3 µM (inactive)
